The compounds below were run on Phytophthora infestans (assay: not given). Details: young tomato plants, sprayed, active ingredient concentration 100 ppm, inoculated 1 day after treatment, evaluation 7 days after inoculation; 100% = no infection.
Type: in vivo
Work on `CCON=C(C)c1cccc(C2CC(c3csc(C4CCN(C(=O)Cn5nc(C(F)F)cc5C(F)F)CC4)n3)=NO2)c1` (mixture of isomers) [Example I-5] yielded an Eff. % of 100%. `CC(C)ON=Cc1cccc(C2CC(c3csc(C4CCN(C(=O)Cn5nc(C(F)F)cc5C(F)F)CC4)n3)=NO2)c1` (mixture of isomers) [Example I-6] was tested, and the Eff. % was 100%. In the case of `Cc1cc(C(F)(F)F)nn1CC(=O)N1CCC(c2nc(C3=NOC(c4cccc(C=NOC(C)C)c4)C3)cs2)CC1` (mixture of isomers) [Example I-8], the Eff. % is reported as 100%. For `CC(=NOC(C)C)c1cccc(C2CC(c3csc(C4CCN(C(=O)Cn5nc(C(F)(F)F)cc5C)CC4)n3)=NO2)c1` (mixture of isomers) [Example I-9], the Eff. % was 100%. Work on `Cc1cc(C(F)(F)F)nn1CC(=O)N1CCC(c2nc(C3=NOC(c4cccc(C=NO)c4)C3)cs2)CC1` (mixture of isomers) [Example I-10] yielded an Eff. % of 100%. Work on `CCON=Cc1cccc(C2CC(c3csc(C4CCN(C(=O)Nc5cc(Cl)ccc5C)CC4)n3)=NO2)c1` (mixture of isomers) [Example I-12] yielded an Eff. % of 95%. `Cc1ccc(Cl)cc1NC(=O)N1CCC(c2nc(C3=NOC(c4cccc(C=NO)c4)C3)cs2)CC1` (mixture of isomers) [Example I-14] gave an Eff. % of 100%. `CON=Cc1cccc(C2CC(c3csc(C4CCN(C(=O)Cn5nc(C(F)(F)F)cc5C)CC4)n3)=NO2)c1` (mixture of isomers) [Example I-15] was tested, and the Eff. % was 100%. Work on `CC(=NO)c1cccc(C2CC(c3csc(C4CCN(C(=O)Cn5nc(C(F)F)cc5C(F)F)CC4)n3)=NO2)c1` (mixture of isomers) [Example I-18] yielded an Eff. % of 100%. With `CON=Cc1cccc(C2CC(c3csc(C4CCN(C(=O)Nc5cc(Cl)ccc5C)CC4)n3)=NO2)c1` (mixture of isomers) [Example I-19] the Eff. % was 100%. For `CC(=NOC(C)C)c1cccc(C2CC(c3csc(C4CCN(C(=O)Cn5nc(C(F)F)cc5C(F)F)CC4)n3)=NO2)c1` (mixture of isomers) [Example I-20], the Eff. % was 100%. `CON=C(C)c1cccc(C2CC(c3csc(C4CCN(C(=O)Cn5nc(C(F)F)cc5C(F)F)CC4)n3)=NO2)c1` (mixture of isomers) [Example I-21] showed an Eff. % of 100%. For `CCON=Cc1cccc(C2CC(c3csc(C4CCN(C(=O)Cn5nc(C(F)F)cc5C(F)F)CC4)n3)=NO2)c1` (mixture of isomers) [Example I-24], the Eff. % was 100%. For `CC(=NOC(C)C)c1ccccc1C1CC(c2csc(C3CCN(C(=O)Cn4nc(C(F)F)cc4C(F)F)CC3)n2)=NO1` (mixture of isomers) [Example I-28], the Eff. % was 100%. In the case of `CC(=NOC(C)C)c1ccccc1C1CC(c2csc(C3CCN(C(=O)Cn4nc(C(F)(F)F)cc4C)CC3)n2)=NO1` (mixture of isomers) [Example I-30], the Eff. % is reported as 100%. `CCON=Cc1ccccc1C1CC(c2csc(C3CCN(C(=O)Nc4cc(Cl)ccc4C)CC3)n2)=NO1` (mixture of isomers) [Example I-33] gave an Eff. % of 100%. With `Cc1ccc(Cl)cc1NC(=O)N1CCC(c2nc(C3=NOC(c4ccccc4C=NOC(C)C)C3)cs2)CC1` (mixture of isomers) [Example I-37] the Eff. % was 100%. `Cc1cc(C(F)(F)F)nn1CC(=O)N1CCC(c2nc(C3=NOC(c4ccccc4C=NOC(C)C)C3)cs2)CC1` (mixture of isomers) [Example I-39] showed an Eff. % of 100%. In the case of `CC(C)ON=Cc1ccccc1C1CC(c2csc(C3CCN(C(=O)Cn4nc(C(F)F)cc4C(F)F)CC3)n2)=NO1` (mixture of isomers) [Example I-42], the Eff. % is reported as 100%. `CCON=Cc1cccc(C2CC(c3csc(C4CCN(C(=O)Cn5nc(C(F)(F)F)cc5C)CC4)n3)=NO2)c1` (stereo not drawn) [Example I-11] showed an Eff. % of 100%. Compound `Cc1ccc(Cl)cc1NC(=O)N1CCC(c2nc(C3=NOC(c4cccc(C=NOC(C)C)c4)C3)cs2)CC1` (stereo not drawn) [Example I-13] has an Eff. % of 100%. `CC1(c2ccccc2OS(C)(=O)=O)CC(c2csc(C3CCN(C(=O)Cn4nc(C(F)F)cc4C(F)F)CC3)n2)=NO1` (stereo not drawn) [Example I-43] gave an Eff. % of 94%. Compound `Cc1cc(C(F)F)nn1CC(=O)N1CCC(c2nc(C3=NOC(C)(c4ccccc4OS(C)(=O)=O)C3)cs2)CC1` (stereo not drawn) [Example I-44] has an Eff. % of 94%. In the case of `COCCS(=O)(=O)Cc1ccccc1C1CC(c2csc(C3CCN(C(=O)Cn4nc(C(F)(F)F)cc4C)CC3)n2)=NO1` (stereo not drawn) [Example I-45], the Eff. % is reported as 94%. `Cc1ccc(S(=O)(=O)Oc2ccccc2C2(C)CC(c3csc(C4CCN(C(=O)Cn5nc(C(F)F)cc5C(F)F)CC4)n3)=NO2)cc1` (stereo not drawn) [Example I-48] was tested, and the Eff. % was 94%. In the case of `Cc1ccc(S(=O)(=O)Oc2ccccc2C2(C)CC(c3csc(C4CCN(C(=O)Cn5nc(C(F)F)cc5C)CC4)n3)=NO2)cc1` (stereo not drawn) [Example I-49], the Eff. % is reported as 94%. `CS(=O)(=O)Oc1ccc(F)c(C2CC(c3csc(C4CCN(C(=O)Cn5nc(C(F)F)cc5C(F)F)CC4)n3)=NO2)c1F` (stereo not drawn) [Example I-50] gave an Eff. % of 94%. `Cc1cc(C(F)F)nn1CC(=O)N1CCC(c2nc(C3=NOC(c4ccccc4OS(C)(=O)=O)C3)cs2)CC1` (stereo not drawn) [Example I-51] gave an Eff. % of 97%. `Cc1ccc(C)c(NC(=O)N2CCC(c3nc(C4=NOC(c5c(Cl)cccc5OS(C)(=O)=O)C4)cs3)CC2)c1` (stereo not drawn) [Example I-52] showed an Eff. % of 94%. Work on `COCC[S+]([O-])Cc1ccccc1C1CC(c2csc(C3CCN(C(=O)Cn4nc(C(F)F)cc4C(F)F)CC3)n2)=NO1` (stereo not drawn) [Example I-56] yielded an Eff. % of 94%. With `CS(=O)(=O)Oc1cc(Cl)ccc1C1CC(c2csc(C3CCN(C(=O)Cn4nc(C(F)F)cc4C(F)F)CC3)n2)=NO1` (stereo not drawn) [Example I-70] the Eff. % was 97%. With `N#CCOc1cc(Cl)ccc1C1CC(c2csc(C3CCN(C(=O)Cn4nc(C(F)F)cc4C(F)F)CC3)n2)=NO1` (stereo not drawn) [Example I-71] the Eff. % was 100%. For `C=CCOCc1ccccc1C1CC(c2csc(C3CCN(C(=O)Cn4nc(C(F)(F)F)cc4C)CC3)n2)=NO1` (stereo not drawn) [Example I-93], the Eff. % was 95%. Work on `C=CCOCc1ccccc1C1CC(c2csc(C3CCN(C(=O)Cn4nc(C(F)F)cc4C(F)F)CC3)n2)=NO1` (stereo not drawn) [Example I-94] yielded an Eff. % of 100%. Work on `Cc1cc(C(F)(F)F)nn1CC(=O)N1CCC(c2nc(C3=NOC(c4cccc(OCC#N)c4)C3)cs2)CC1` (stereo not drawn) [Example I-95] yielded an Eff. % of 100%. For `Cc1cc(C(F)(F)F)nn1CC(=O)N1CCC(c2nc(C3=NOC(c4ccc(OS(C)(=O)=O)cc4)C3)cs2)CC1` (stereo not drawn) [Example I-96], the Eff. % was 95%. `CCS(=O)(=O)Oc1ccc(C2CC(c3csc(C4CCN(C(=O)Cn5nc(C(F)(F)F)cc5C)CC4)n3)=NO2)cc1` (stereo not drawn) [Example I-97] was tested, and the Eff. % was 95%. `Cc1cc(C(F)(F)F)nn1CC(=O)N1CCC(c2nc(C3=NOC(c4ccc(OS(=O)(=O)C5CC5)cc4)C3)cs2)CC1` (stereo not drawn) [Example I-98] showed an Eff. % of 95%. Work on `CCS(=O)(=O)Oc1cccc(C2CC(c3csc(C4CCN(C(=O)Cn5nc(C(F)(F)F)cc5C)CC4)n3)=NO2)c1` (stereo not drawn) [Example I-99] yielded an Eff. % of 100%. With `COCCSCc1ccccc1C1CC(c2csc(C3CCN(C(=O)Cn4nc(C(F)F)cc4C(F)F)CC3)n2)=NO1` (stereo not drawn) [Example I-100] the Eff. % was 100%. `Cc1cc(C(F)(F)F)nn1CC(=O)N1CCC(c2nc(C3=NOC(c4cccc(OS(=O)(=O)C5CC5)c4)C3)cs2)CC1` (stereo not drawn) [Example I-101] showed an Eff. % of 100%. `C=CC(=O)Oc1ccccc1C1CC(c2csc(C3CCN(C(=O)Cn4nc(C(F)(F)F)cc4C)CC3)n2)=NO1` (stereo not drawn) [Example I-104] gave an Eff. % of 97%. `O=C(Cn1nc(C(F)F)cc1C(F)F)N1CCC(c2nc(C3=NOC(c4ccccc4OC(=O)C4(Cl)CC4)C3)cs2)CC1` (stereo not drawn) [Example I-107] gave an Eff. % of 100%. With `Cc1cc(C(F)(F)F)nn1CC(=O)N1CCC(c2nc(C3=NOC(c4ccccc4NC=O)C3)cs2)CC1` (stereo not drawn) [Example I-109] the Eff. % was 100%. `N#CCOc1cccc(C2CC(c3csc(C4CCN(C(=O)Cn5nc(C(F)F)cc5C(F)F)CC4)n3)=NO2)c1` (stereo not drawn) [Example I-110] was tested, and the Eff. % was 100%. With `Cc1cc(C(F)(F)F)nn1CC(=O)N1CCC(c2nc(C3=NOC(c4cccc(F)c4OCC#N)C3)cs2)CC1` (stereo not drawn) [Example I-111] the Eff. % was 98%. Work on `O=C(O)c1ccccc1C1CC(c2csc(C3CCN(C(=O)Cn4nc(C(F)F)cc4C(F)F)CC3)n2)=NO1` (stereo not drawn) [Example I-134] yielded an Eff. % of 93%. `CCNC(=O)Oc1ccccc1C1CC(c2csc(C3CCN(C(=O)Cn4nc(C(F)F)cc4C(F)F)CC3)n2)=NO1` (stereo not drawn) [Example I-136] gave an Eff. % of 93%. With `O=C(Cn1nc(C(F)F)cc1C(F)F)N1CCC(c2nc(C3=NOC(c4cccc(OCC#Cc5cccc6ccccc56)c4)C3)cs2)CC1` (stereo not drawn) [Example I-137] the Eff. % was 100%. `C=CCOCc1ccccc1C1CC(c2csc(C3CCN(C(=O)Cn4nc(C(F)F)cc4C(F)F)CC3)n2)=NO1` (stereo not drawn) [Example I-139] was tested, and the Eff. % was 80%.

The compounds below were run on Plasmopara viticola (assay: Plasmopara test (grapevine)/protective). Details: young grapevine plants, sprayed, active ingredient concentration 10 ppm, evaluation 6 days after inoculation; 100% = no infection.
Type: in vivo
Protocol: Plasmopara Test (Grapevine)/Protective
• Solvent: 24.5 parts by weight of acetone • 24.5 parts by weight of dimethylacetamide • Emulsifier: 1 part by weight of alkylaryl polyglycol ether
[To produce an appropriate active ingredient formulation, 1 part by weight of active ingredient is mixed with the specified amounts of solvent and emulsifier, and the concentrate is diluted with water to the desired concentration.
To test for protective efficacy, young plants are sprayed with the active ingredient formulation at the stated application rate. After the spray coating has dried on, the plants are inoculated with an aqueous spore suspension of Plasmopara viticola and then remain in an incubation cabin at approx. 20° C. and 100% relative air humidity for 1 day. Subsequently, the plants are placed in a greenhouse at approx. 21° C. and approx. 90% air humidity for 4 days. The plants are then moistened and placed in an incubation cabin for 1 day.
Evaluation follows 6 days after the inoculation. 0% means an efficacy which corresponds to that of the control, whereas an efficacy of 100% means that no infection is observed.
In this test, the following inventive compounds show, at an active ingredient concentration of 10 ppm, an efficacy of 70% or more: […]
Work on `CCON=C(C)c1cccc(C2CC(c3csc(C4CCN(C(=O)Cn5nc(C(F)F)cc5C(F)F)CC4)n3)=NO2)c1` (mixture of isomers) [Example I-5] yielded an Eff. % of 87%. With `Cc1cc(C(F)(F)F)nn1CC(=O)N1CCC(c2nc(C3=NOC(c4cccc(C=NO)c4)C3)cs2)CC1` (mixture of isomers) [Example I-10] the Eff. % was 92%. `Cc1ccc(Cl)cc1NC(=O)N1CCC(c2nc(C3=NOC(c4cccc(C=NO)c4)C3)cs2)CC1` (mixture of isomers) [Example I-14] showed an Eff. % of 100%. Compound `CON=Cc1cccc(C2CC(c3csc(C4CCN(C(=O)Cn5nc(C(F)(F)F)cc5C)CC4)n3)=NO2)c1` (mixture of isomers) [Example I-15] has an Eff. % of 81%. For `CON=Cc1cccc(C2CC(c3csc(C4CCN(C(=O)Cn5nc(C(F)F)cc5C(F)F)CC4)n3)=NO2)c1` (mixture of isomers) [Example I-16], the Eff. % was 94%. In the case of `CC(=NO)c1cccc(C2CC(c3csc(C4CCN(C(=O)Cn5nc(C(F)F)cc5C(F)F)CC4)n3)=NO2)c1` (mixture of isomers) [Example I-18], the Eff. % is reported as 100%. `CON=Cc1cccc(C2CC(c3csc(C4CCN(C(=O)Nc5cc(Cl)ccc5C)CC4)n3)=NO2)c1` (mixture of isomers) [Example I-19] showed an Eff. % of 100%. `CON=C(C)c1cccc(C2CC(c3csc(C4CCN(C(=O)Cn5nc(C(F)F)cc5C(F)F)CC4)n3)=NO2)c1` (mixture of isomers) [Example I-21] showed an Eff. % of 100%. Work on `CC(=O)Nc1ccc(C2CC(c3csc(C4CCN(C(=O)Cn5nc(C(F)F)cc5C(F)F)CC4)n3)=NO2)cc1` (stereo not drawn) [Example I-25] yielded an Eff. % of 97%. In the case of `N#CCOc1cccc(Cl)c1C1CC(c2csc(C3CCN(C(=O)Cn4nc(C(F)F)cc4C(F)F)CC3)n2)=NO1` (stereo not drawn) [Example I-75], the Eff. % is reported as 100%.

Reference: US10499641B2 (priority 2010, dated 2019)
